# Measurements as given in ChEMBL document CHEMBL5338710, “Discovery of dearomatized isoprenylated acylphloroglucinols with colon tumor suppressive activities in mice via inhibiting NFκB-FAT1-PDCD4 signaling activation” (Eur J Med Chem, 2022).
# Activity calls are given as the source filed them. The calls are words filed in the database; no cut-off is given here.
# Columns and labels:
# [1] = test system: HCT-116; experiment: Induction of cell cycle arrest in human HCT-116 cells assessed as upregulation of p53 protein expression at 2.5 to 5 uM measured for 48 hrs by Western blot analysis; type: functional, cell-based; details: dose 2.5-5 µM
# [2] = test system: HCT-116; experiment: Induction of cell cycle arrest in human HCT-116 cells assessed as upregulation of p21 mRNA expression at 2.5 to 5 uM measured after 24 hrs by qRT-PCR analysis; type: functional, cell-based; details: dose 2.5-5 µM
# [3] = test system: HCT-116; experiment: Induction of apoptosis in human HCT-116 cells assessed as decrease in Bcl2 mRNA expression at 5 uM measured for 48 hrs by qRT-PCR analysis; type: functional, cell-based
# [4] = test system: HCT-116; experiment: Induction of apoptosis in human HCT-116 cells assessed as increase in Bax mRNA expression at 5 uM measured for 48 hrs by qRT-PCR analysis; type: functional, cell-based
# [5] = test system: HT-29; experiment: Antiproliferative activity against human HT-29 cells assessed as reduction in cell viability measured after 48 hrs by MTT assay; type: functional, cell-based; details: HT-29, 48 h
# [6] = test system: HCT-116; experiment: Downregulation of PDCD4 mRNA expression in human HCT-116 cells by qRT-PCR analysis; type: functional, cell-based; details: dose 1-5 µM
# [7] = test system: HCT-116; experiment: Induction of G2/M phase cell cycle arrest in human HCT-116 cells assessed as decrease in cyclin A2 protein expression at 2.5 to 5 uM measured for 48 hrs by Western blot analysis; type: functional, cell-based; details: dose 2.5-5 µM
# [8] = Toxicity in nude mouse xenografted with human HCT-116 cells assessed as change in plasma LDH level at 3 to 4 mg/kg, iv measured for 23 days; type: organism-based; details: in vivo, 552 h, dose 3-4 mg/kg, time 23 day
# [9] = test system: HCT-116; experiment: Antitumor activity against human HCT-116 cells xenografted in nude mouse assessed as decrease in tumor volume at 4 mg/kg, iv measured at day 9; type: functional, organism-based; details: time 9.0 day
# [10] = test system: HCT-116; experiment: Downregulation of FAT1 mRNA expression in human HCT-116 cells at 2.5 to 5 uM measured after 24 hrs by qRT-PCR analysis; type: functional, cell-based; details: dose 2.5-5 µM
# [11] = test system: HCT-116; experiment: Antitumor activity against human HCT-116 cells xenografted in iv dosed nude mouse model assessed as increase in apoptosis in tumor tissue measured for 23 days by TUNEL staining based analysis; type: functional, organism-based; details: dose 3-4 mg/kg, time 23.0 day
# [12] = test system: HCT-116; experiment: Antitumor activity against human HCT-116 cells xenografted in nude mouse model assessed as reduction in FAT1 expression in tumor tissue at 3 to 4 mg/kg, iv administered for 23 days by IHC analysis; type: functional, organism-based; details: dose 3-4 mg/kg, time 23.0 day
# [13] = test system: HCT-116; experiment: Antiproliferative activity against human HCT-116 cells assessed as reduction in cell viability measured after 48 hrs by MTT assay; type: functional, cell-based; details: HCT-116, 48 h
# [14] = test system: HCT-116; experiment: Antitumor activity against human HCT-116 cells xenografted in nude mouse model assessed as reduction in Ki67 expression in tumor tissue at 3 to 4 mg/kg, iv administered for 23 days by […] analysis; type: functional, organism-based; details: dose 3-4 mg/kg, time 23.0 day
# [15] = Toxicity in nude mouse xenografted with human HCT-116 cells assessed as change in plasma AST level at 3 to 4 mg/kg, iv measured for 23 days; type: organism-based; details: in vivo, 552 h, dose 3-4 mg/kg, time 23 day
# [16] = Toxicity in nude mouse xenografted with human HCT-116 cells assessed as change in plasma ALT level at 3 to 4 mg/kg, iv measured for 23 days; type: organism-based; details: in vivo, 552 h, dose 3-4 mg/kg, time 23 day
# [17] = Antiproliferative activity against human PBMC cells assessed as reduction in cell viability measured after 48 hrs by MTT assay; type: toxicity, cell-based
# [18] = Toxicity in nude mouse xenografted with human HCT-116 cells assessed as effect on body weight at 3 to 4 mg/kg, iv measured for 23 days; type: organism-based; details: in vivo, 552 h, dose 3-4 mg/kg, time 23 day
# [19] = test system: HCT-116; experiment: Antitumor activity against human HCT-116 cells xenografted in nude mouse model assessed as increase in p53 protein expression in tumor tissue at 3 to 3.5 mg/kg, iv administered for 23 days by Western blot analysis; type: functional, organism-based; details: dose 3-3.5 mg/kg, time 23.0 day
# [20] = test system: HCT-116; experiment: Antitumor activity against human HCT-116 cells xenografted in iv dosed nude mouse assessed as decrease in tumor volume measured for 23 days; type: functional, organism-based; details: dose 3-4 mg/kg, time 23.0 day
# [21] = test system: HCT-116; experiment: Induction of G2/M phase cell cycle arrest in human HCT-116 cells assessed as decrease in CDK1 protein expression at 2.5 to 5 uM measured for 48 hrs by Western blot analysis; type: functional, cell-based; details: dose 2.5-5 µM
# [22] = test system: HCT-116; experiment: Induction of cell cycle arrest in human HCT-116 cells assessed as upregulation of p53 mRNA expression at 2.5 to 5 uM measured after 24 hrs by qRT-PCR analysis; type: functional, cell-based; details: dose 2.5-5 µM
# [23] = test system: HCT-116; experiment: Downregulation of FAT1 protein expression in human HCT-116 cells measured at 24 to 48 hrs by Western blot analysis; type: functional, cell-based; details: dose 0.5-5 µM, time 24-48 hrs
# [24] = test system: HCT-116; experiment: Induction of G2/M phase cell cycle arrest in human HCT-116 cells assessed as decrease in cyclin A2 mRNA expression at 2.5 to 5 uM measured after 24 hrs by qRT-PCR analysis; type: functional, cell-based; details: dose 2.5-5 µM
# [25] = test system: HCT-116; experiment: Upregulation of SERPINE1 mRNA expression in human HCT-116 cells at 2.5 to 5 uM measured after 24 hrs by qRT-PCR analysis; type: functional, cell-based; details: dose 2.5-5 µM
# [26] = Antiproliferative activity against human HS27 cells assessed as reduction in cell viability measured after 48 hrs by MTT assay; type: toxicity, cell-based
# [27] = Toxicity in nude mouse xenografted with human HCT-116 cells assessed as change in plasma CK level at 3 to 4 mg/kg, iv measured for 23 days; type: organism-based; details: in vivo, 552 h, dose 3-4 mg/kg, time 23 day
# [28] = test system: HCT-116; experiment: Antiproliferative activity against human HCT-116 cells assessed as reduction in cell viability at 5 uM measured after 48 hrs by MTT assay; type: functional, cell-based
# [29] = test system: HCT-116; experiment: Induction of cell cycle arrest in human HCT-116 cells assessed as accumulation of cells at G2 phase at 2.5 to 5 uM measured after 48 hrs by PI staining based flow cytometry method; type: functional; details: dose 2.5-5 µM
# [30] = test system: HCT-116; experiment: Antitumor activity against human HCT-116 cells xenografted in nude mouse assessed as reduction in tumor weight at 3 to 4 mg/kg, iv measured for 23 days; type: functional, organism-based; details: dose 3-4 mg/kg, time 23.0 day
# [31] = molecular target: T1, Nuclear factor NF-kappa-B complex (Homo sapiens) (UniProt Q00653+P19838+Q04206); experiment: Inhibition of TNFalpha induced-NFkB phosphorylation in human HCT-116 cells at 5 uM pretreated for 24 hrs followed by TNFalpha induction and measured after 24 hrs by Western blot analysis; type: cell-based; details: time 48.0 hrs
# [32] = test system: HCT-116; experiment: Antitumor activity against human HCT-116 cells xenografted in nude mouse assessed as decrease in tumor volume at 3 to 4 mg/kg, iv measured for 23 days; type: functional, organism-based; details: dose 3-4 mg/kg, time 23.0 day
# [33] = molecular target: T1, Nuclear factor NF-kappa-B complex (Homo sapiens); experiment: Inhibition of TNFalpha induced-NFkB phosphorylation in human HCT-116 cells at 1 to 5 uM pretreated for 24 hrs followed by TNFalpha induction and measured after 24 hrs by Western blot analysis; type: cell-based; details: dose 1-5 µM, time 48.0 hrs
# [34] = Toxicity in nude mouse xenografted with human HCT-116 cells assessed as body weight loss at 3 to 4 mg/kg, iv measured for 23 days; type: organism-based; details: in vivo, 552 h, dose 3-4 mg/kg, time 23 day
# [35] = test system: HCT-116; experiment: Induction of cell cycle arrest in human HCT-116 cells assessed as upregulation of 14-3-3sigma mRNA expression at 2.5 to 5 uM measured after 24 hrs by qRT-PCR analysis; type: functional, cell-based; details: dose 2.5-5 µM
# [36] = test system: SW480; experiment: Antiproliferative activity against human SW480 cells assessed as reduction in cell viability measured after 48 hrs by MTT assay; type: functional, cell-based; details: SW480, 48 h
# [37] = test system: HCT-116; experiment: Antiproliferative activity against human HCT-116 cells assessed as reduction in cell viability measured after 48 hrs by BrdU staining based assay; type: functional; details: HCT-116, 48 h
# [38] = test system: HCT-116; experiment: Induction of apoptosis in human HCT-116 cells at 5 uM measured for 48 hrs by annexin V/PI staining based analysis; type: functional, cell-based
# T1 sequence (P19838 whole entry, looked up): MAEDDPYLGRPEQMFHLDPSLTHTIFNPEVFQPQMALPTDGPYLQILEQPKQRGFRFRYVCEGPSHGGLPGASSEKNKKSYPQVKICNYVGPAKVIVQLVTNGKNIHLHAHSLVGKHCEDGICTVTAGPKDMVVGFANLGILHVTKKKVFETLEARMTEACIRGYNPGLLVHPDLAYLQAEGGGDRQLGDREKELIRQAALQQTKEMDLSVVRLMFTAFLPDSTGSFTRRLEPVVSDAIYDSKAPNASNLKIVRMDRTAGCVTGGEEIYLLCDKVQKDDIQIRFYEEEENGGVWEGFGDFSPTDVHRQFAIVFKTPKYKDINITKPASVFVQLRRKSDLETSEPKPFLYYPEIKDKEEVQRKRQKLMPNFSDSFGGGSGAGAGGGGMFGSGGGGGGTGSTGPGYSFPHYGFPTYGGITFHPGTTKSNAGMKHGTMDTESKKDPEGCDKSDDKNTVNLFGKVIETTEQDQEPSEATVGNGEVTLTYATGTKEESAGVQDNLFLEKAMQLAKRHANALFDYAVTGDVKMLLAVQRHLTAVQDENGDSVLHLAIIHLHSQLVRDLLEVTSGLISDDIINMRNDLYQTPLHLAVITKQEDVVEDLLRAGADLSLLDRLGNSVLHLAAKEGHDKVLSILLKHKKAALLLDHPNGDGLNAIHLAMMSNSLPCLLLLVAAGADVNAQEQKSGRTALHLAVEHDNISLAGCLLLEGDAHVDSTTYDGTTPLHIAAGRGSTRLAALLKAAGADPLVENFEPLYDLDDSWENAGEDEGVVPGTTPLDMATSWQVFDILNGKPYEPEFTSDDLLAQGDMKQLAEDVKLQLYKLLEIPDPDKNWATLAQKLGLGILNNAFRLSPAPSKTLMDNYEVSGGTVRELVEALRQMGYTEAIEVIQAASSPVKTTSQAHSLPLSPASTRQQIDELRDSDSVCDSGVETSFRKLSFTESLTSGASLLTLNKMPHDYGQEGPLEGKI
# T1 sequence (Q00653 whole entry, looked up): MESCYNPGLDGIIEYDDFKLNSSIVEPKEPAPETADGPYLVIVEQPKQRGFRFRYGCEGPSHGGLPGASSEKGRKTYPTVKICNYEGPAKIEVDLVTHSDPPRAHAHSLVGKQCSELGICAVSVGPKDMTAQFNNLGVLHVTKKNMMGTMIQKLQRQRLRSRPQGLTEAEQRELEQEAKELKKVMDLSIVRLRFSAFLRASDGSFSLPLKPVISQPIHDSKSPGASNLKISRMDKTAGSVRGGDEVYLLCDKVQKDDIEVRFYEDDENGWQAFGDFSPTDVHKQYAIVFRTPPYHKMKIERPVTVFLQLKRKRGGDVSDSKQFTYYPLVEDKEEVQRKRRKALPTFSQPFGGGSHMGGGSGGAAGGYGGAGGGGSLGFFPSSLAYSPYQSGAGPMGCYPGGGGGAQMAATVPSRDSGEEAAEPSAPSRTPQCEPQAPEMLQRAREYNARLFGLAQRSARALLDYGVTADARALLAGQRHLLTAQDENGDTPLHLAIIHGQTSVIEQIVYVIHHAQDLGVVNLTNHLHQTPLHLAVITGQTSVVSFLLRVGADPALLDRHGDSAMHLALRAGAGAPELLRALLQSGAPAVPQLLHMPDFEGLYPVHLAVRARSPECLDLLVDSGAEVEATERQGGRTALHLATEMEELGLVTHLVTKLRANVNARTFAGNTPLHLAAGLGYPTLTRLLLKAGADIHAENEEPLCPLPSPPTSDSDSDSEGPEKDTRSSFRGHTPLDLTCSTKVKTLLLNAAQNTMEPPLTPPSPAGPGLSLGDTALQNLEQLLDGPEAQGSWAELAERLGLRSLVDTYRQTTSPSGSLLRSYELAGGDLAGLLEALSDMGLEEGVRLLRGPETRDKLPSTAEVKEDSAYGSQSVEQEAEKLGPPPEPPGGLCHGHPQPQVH
# T1 sequence (Q04206 whole entry, looked up): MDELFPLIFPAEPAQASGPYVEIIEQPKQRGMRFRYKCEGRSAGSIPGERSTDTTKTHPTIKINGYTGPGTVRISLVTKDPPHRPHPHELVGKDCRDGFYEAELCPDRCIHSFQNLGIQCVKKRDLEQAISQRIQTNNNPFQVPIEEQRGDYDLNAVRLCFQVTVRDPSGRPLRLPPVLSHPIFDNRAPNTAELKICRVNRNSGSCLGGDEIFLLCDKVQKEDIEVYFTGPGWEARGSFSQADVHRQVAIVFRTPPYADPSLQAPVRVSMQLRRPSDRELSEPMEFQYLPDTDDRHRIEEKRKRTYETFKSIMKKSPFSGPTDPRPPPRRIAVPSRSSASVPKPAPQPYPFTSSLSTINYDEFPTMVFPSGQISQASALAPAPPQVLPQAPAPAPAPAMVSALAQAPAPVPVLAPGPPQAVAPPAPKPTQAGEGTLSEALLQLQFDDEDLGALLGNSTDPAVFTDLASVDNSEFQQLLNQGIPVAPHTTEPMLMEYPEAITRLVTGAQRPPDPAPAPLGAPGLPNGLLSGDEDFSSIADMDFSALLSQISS
smiles,measurement,setting,value
C=C(C)[C@H]1CC[C@@](C)(O)[C@@H](C2=C(O)[C@@](C)(CC=C(C)C)C(=O)C(C(=O)C(C)C)=C2O)C1,Activity,[1],Active
same,Activity,[2],Active
same,Activity,[3],Active
same,Activity,[4],Active
same,IC50,[5],11.6 µM
same,Activity,[6],Dose-Dependent Effect
same,Activity,[7],Active
same,Activity,[8],Non-Toxic
same,Activity,[9],Active
same,Activity,[10],Active
same,Activity,[11],Dose-Dependent Effect
same,Activity,[12],Active
same,IC50,[13],4.37 µM
same,Activity,[14],Active
same,Activity,[15],Non-Toxic
same,Activity,[16],Non-Toxic
same,IC50 at 48 h,[17],> 100 µM
same,Activity,[18],Non-Toxic
same,Activity,[19],Active
same,Activity,[20],Dose-Dependent Effect
same,Activity,[21],Active
same,Activity,[22],Active
same,Activity,[23],Dose-Dependent Effect
same,Activity,[24],Active
same,Activity,[25],Active
same,IC50 at 48 h,[26],> 100 µM
same,Activity,[27],Non-Toxic
same,Activity,[28],Active
same,Activity,[29],Active
same,Activity,[30],Active
same,inhibition,[31],Active
same,Activity,[32],Active
same,inhibition,[33],inactive
same,Activity,[34],Non-Toxic
same,Activity,[35],Active
same,IC50,[36],22.2 µM
same,IC50,[37],1.53 µM
same,Activity,[38],Active
